Test results taken from patent publication US5187169A, “Method for treatment of neurodegenerative diseases” (R. J. Reynolds Tobacco Company, priority 1992, dated 1993).

Experiments:
[1] = target: high affinity nicotinic receptors; assay: Inhibition of L-[3H]nicotine binding to mouse brain membrane preparations; design: species or system Mice (DBA strain); settings: mouse brain membranes, 2 hr incubation at 4° C., 10 nM L-[3H]nicotine, Ki calculated from IC50 by the method of Cheng et al.
Experimental: Mice (DBA strain) were maintained on a 12 hour light/dark cycle and were allowed free access to water and food supplied by Wayne Lab Blox, Madison, Wis. Animals used in the present studies were 60 to 90 days of age and weighed 20 to 25 g. Brain membrane preparations were obtained from pooled brain tissue of both males and females.
Mice were killed by cervical dislocation. Brains were removed and placed on an ice-cold platform. […] Protein was determined by the method of Lowry, et al., J. Biol. Chem., Vol. 193, pp. 265-275 (1951), using bovine serum albumin as the standard.
The binding of L-[^3 H]nicotine was measured using a modification of the method of Romano, et al., Science, Vol. 210, pp. 647-650 (1980) as described previously by Marks, et al., Mol. Pharmacol., Vol. 30, pp. 427-436 (1986). The binding of L-[^3 H]nicotine was measured using a 2 hr. incubation at 4° C. […] Nonspecific binding was determined by inclusion of 10 μM nonradioactive nicotine in the incubations. The inhibition of L-[^3 H]nicotine binding by test compounds was determined by including one of eight different concentrations of the test compound in the incubation. […] Inhibition constants (Ki values) were calculated from the IC50 values using the method of Cheng, et al., Biochem. Pharmacol., Vol. 22, pp. 3099-3108 (1973). […]

[2] = test system: synaptosomes from the striatal area of rat brain; assay: [3H]-dopamine release from rat striatal synaptosomes; format: cell-based, Sprague-Dawley rats; settings: 0.2 ml of a 20 μM solution of ligand, relative to an equal concentration of (S)-(-)-nicotine
Experimental: Dopamine release was measured by preparing synaptosomes from the striatal area of rat brain obtained from Sprague-Dawley rats generally according to the procedures set forth by Nagy, et al., J. Neurochem., Vol. 43, pp. 1114-1123 (1984). Striata from 4 rats were homogenized in 2 ml of 0.32M sucrose buffered with 5 mM HEPES (pH 7.5), using a glass-teflon tissue grinder. The homogenate was diluted to 5 ml with additional homogenization solution and centrifuged at 1000×g for 10 min. This procedure was repeated on the new pellet and the resulting supernatant was centrifuged at 12,000×g for 20 min. […] Using this method, 30 to 90 percent of the dopamine was taken up into the synaptosomes, as determined by scintillation counting following filtration through glass fiber filters soaked with 0.5 percent polyethyleneimine. […] After the addition of a 0.2 ml of a 20 μM solution of ligand, the perfusate was collected into scintillation vials at 1 min. intervals and the dopamine released was quantified by scintillation counting. Peaks of radioactivity released above background were summed and the average basal release during that time was subtracted from the total. Release was expressed as a percentage of release obtained with an equal concentration of (S)-(-)-nicotine.

CN1C(=O)CC[C@H]1c1cccnc1 [cotinine]
Ki [1]: 3.9 µM | Dopamine Release [2]: 20 Percent release relative to (S
